Reference: patent US20180369426A1, “COMPOSITIONS COMPRISING FLUORESCENT DYES ASSOCIATED WITH VIRAL COMPONENTS FOR NERVE IMAGING” (priority 2008, published 2018)

Tested on: footpad nerves
Assay: Mouse footpad injection, ICG fluorescence imaging of nerves (Example 3)
Format: in vivo
Conditions: 10 μL into footpad, imaged 2 hours after injection, back dissected (FIG. 3A)
Method: Example 3 is a comparison of imaging with a fluorescent dye alone versus a fluorescent dye bound to the virus. Unless otherwise specified, all images are digital images obtained from a CCD camera.
A mouse ([…]) was briefly anesthetized by halothane inhalation. The right footpad of the mouse was injected with 10 μL of ICG, phosphate buffered saline (PBS) and a virus mutant, HSV-2 ΔRR (“ICG/PBS/HSV-2 ΔRR mixture”). The left footpad was injected with 10 μl of ICG/PBS mixture as a control. The same concentration of ICG was present in both mixtures.
2 hours after footpad injections, the mouse was anesthetized and then euthanized with interperitoneal injection of sodium pentobarbital. ICG fluorescence images were acquired first of the intact mouse and then at various stages of dissection.

## CC1(C)C(/C=C/C=C/C=C/C=C2\N(CCCCS(=O)(=O)O)c3ccc4ccccc4c3C2(C)C)=[N+](CCCCS(=O)(=O)[O-])c2ccc3ccccc3c21 [ICG, indocyanine green]
  extent of fluorescence after footpad injection: limited to the left foot itself
